Test results from ChEMBL document CHEMBL1201862, “PubChem BioAssay data set” (2004).
Blank lines part the entries; values can stand above or below the compound they belong to. Calls of active or inactive are those of the source.

Columns and labels:
[1] = molecular target: T1, Insulin-degrading enzyme (Homo sapiens, UniProt P14735); assay: recombinant IDE activation, cell-free – biochemical, fluorescence polarization, counter-screen for IDE activator project, dose response (AID 588681)
T1 sequence (P14735 whole entry): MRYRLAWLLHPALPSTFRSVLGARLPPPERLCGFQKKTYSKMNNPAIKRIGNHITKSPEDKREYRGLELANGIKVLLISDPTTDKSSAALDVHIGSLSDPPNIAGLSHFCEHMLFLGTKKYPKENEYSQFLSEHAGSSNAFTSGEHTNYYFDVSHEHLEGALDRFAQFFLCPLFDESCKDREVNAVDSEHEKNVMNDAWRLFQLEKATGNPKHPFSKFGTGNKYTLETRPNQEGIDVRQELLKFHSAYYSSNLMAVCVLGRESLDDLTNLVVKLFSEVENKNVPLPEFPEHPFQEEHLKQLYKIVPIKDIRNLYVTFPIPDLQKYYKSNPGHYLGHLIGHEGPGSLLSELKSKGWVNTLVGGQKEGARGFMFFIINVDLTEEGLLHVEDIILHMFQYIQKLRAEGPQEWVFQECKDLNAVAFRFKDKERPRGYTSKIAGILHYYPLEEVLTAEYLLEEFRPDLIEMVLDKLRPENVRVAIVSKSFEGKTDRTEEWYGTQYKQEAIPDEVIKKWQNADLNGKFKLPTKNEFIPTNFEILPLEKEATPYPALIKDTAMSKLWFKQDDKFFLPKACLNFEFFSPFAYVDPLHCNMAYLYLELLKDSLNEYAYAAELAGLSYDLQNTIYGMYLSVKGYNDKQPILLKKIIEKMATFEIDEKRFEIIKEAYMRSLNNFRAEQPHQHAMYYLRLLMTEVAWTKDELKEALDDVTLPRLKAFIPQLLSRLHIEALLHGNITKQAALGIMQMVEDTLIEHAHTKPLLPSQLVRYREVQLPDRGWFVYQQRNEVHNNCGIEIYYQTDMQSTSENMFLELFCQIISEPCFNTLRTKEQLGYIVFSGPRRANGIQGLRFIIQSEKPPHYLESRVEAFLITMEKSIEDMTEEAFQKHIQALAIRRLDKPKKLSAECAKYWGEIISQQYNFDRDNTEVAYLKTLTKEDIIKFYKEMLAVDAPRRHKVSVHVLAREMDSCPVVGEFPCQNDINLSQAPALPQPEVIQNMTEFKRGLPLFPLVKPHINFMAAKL

[2] = molecular target: T1, Insulin-degrading enzyme; assay: cellular IDE activation of Abeta substrate cleavage – fluorescence polarization, HEK cells, dose response (AID 588439); type: functional, cell-based
[3] = tested on: HEK293; assay: membrane integrity loss in HEK cells – cell-based, fluorescence, cytotoxicity control for IDE activator project, dose response (AID 588440); type: functional; settings: Homo sapiens;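 note: cytotoxicity by LDH release measuring loss of membrane integrity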
[4] = tested on: HEK293; assay: optical interference in Abeta FP readout, dose response, artefact control for IDE activator project, biochemical, fluorescence polarization (AID 588442); type: functional, cell-based; settings: Homo sapiens
[5] = tested on: HeLa; assay: ATP-based viability loss in HeLa cells – cell-based, CellTiter-Glo luminescence, cherry-pick samples, cytotoxicity control for MITF activator project, dose response (AID 540259); type: functional; settings: Homo sapiens
[6] = molecular target: T2, Protein skinhead-1 (Caenorhabditis elegans, UniProt P34707); type: functional
T2 sequence (P34707 whole entry): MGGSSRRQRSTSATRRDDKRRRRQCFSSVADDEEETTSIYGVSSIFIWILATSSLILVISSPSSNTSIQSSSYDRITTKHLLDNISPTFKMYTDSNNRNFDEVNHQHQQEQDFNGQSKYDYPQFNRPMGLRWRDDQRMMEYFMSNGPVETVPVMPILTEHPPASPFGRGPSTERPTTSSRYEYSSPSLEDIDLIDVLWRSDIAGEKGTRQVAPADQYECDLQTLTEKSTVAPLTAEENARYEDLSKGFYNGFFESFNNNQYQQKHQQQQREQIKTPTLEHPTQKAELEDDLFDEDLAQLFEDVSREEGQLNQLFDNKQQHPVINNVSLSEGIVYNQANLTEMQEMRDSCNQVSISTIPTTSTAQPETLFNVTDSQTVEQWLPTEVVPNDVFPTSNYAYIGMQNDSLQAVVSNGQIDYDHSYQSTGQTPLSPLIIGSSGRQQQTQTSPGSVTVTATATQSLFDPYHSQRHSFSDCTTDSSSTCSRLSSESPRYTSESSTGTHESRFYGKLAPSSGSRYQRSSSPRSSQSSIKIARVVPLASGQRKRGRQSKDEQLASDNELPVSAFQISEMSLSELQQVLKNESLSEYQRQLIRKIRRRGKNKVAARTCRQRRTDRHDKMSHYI

[7] = molecular target: T3, Phospholipase D1 (Homo sapiens, UniProt Q13393); assay: cellular phospholipase D1 inhibition IC50 – cell-based, dose response (AID 602151); type: functional;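 note: cellular PLD1 assay in Calu-1 cells stimulated with PMA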
T3 sequence (Q13393 whole entry): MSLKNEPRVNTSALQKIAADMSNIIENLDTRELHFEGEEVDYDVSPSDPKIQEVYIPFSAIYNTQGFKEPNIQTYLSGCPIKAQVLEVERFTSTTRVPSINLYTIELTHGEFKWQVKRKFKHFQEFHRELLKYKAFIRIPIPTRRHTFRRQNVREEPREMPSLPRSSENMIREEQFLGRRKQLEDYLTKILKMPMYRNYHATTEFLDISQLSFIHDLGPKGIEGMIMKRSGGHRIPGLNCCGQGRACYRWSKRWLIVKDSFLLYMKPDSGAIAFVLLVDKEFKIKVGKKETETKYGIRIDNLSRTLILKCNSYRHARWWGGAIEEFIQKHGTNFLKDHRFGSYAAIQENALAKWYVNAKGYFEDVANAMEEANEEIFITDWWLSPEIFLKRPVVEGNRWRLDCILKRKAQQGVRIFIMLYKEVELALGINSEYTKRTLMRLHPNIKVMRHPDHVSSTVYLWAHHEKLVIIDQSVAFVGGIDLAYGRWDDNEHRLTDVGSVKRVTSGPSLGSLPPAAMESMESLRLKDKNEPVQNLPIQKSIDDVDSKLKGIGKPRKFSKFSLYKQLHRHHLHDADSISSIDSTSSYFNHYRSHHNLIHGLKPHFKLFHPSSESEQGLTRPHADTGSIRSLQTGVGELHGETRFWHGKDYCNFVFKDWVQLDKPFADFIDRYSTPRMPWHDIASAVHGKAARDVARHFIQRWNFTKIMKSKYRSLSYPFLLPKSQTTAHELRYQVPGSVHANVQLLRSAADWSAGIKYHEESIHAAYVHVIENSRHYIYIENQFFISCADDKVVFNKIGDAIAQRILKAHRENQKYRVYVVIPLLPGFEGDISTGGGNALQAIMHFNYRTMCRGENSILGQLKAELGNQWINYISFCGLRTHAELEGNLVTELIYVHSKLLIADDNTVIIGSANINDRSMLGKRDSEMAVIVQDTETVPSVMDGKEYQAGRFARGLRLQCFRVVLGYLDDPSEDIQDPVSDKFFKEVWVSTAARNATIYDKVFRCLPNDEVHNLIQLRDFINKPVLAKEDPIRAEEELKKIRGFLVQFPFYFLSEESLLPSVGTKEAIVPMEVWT

[8] = molecular target: Phospholipase D2 (Homo sapiens, UniProt O14939); assay: cellular phospholipase D2 inhibition IC50 – cell-based, dose response (AID 602147); type: functional;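 note: cellular assay in HEK293 cells overexpressing GFP-tagged PLD2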
Phospholipase D2, sequence (O14939 whole entry): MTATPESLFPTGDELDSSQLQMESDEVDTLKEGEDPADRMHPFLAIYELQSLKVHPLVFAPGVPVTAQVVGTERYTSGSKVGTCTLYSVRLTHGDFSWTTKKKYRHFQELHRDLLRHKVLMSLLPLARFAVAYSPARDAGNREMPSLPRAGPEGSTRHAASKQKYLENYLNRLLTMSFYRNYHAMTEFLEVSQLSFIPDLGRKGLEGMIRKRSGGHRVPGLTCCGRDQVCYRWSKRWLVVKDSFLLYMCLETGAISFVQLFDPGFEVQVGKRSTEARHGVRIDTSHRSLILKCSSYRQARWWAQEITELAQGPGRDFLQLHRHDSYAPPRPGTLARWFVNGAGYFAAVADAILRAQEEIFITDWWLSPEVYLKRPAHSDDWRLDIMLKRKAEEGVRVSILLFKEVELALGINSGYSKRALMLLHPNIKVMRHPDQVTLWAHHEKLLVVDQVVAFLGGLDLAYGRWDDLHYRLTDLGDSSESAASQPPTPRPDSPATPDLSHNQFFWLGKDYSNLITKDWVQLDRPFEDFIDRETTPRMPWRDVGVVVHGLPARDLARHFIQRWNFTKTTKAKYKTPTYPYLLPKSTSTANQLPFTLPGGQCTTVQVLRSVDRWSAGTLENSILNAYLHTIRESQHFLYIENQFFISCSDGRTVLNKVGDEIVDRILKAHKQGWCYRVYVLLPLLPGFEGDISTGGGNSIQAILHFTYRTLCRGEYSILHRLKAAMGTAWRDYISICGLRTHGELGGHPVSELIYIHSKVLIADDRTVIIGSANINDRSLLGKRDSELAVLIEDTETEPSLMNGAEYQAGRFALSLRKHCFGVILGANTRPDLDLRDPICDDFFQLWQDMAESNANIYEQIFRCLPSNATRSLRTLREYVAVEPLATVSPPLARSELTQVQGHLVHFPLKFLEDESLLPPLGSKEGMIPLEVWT

[9] = molecular target: Dual specificity protein kinase CLK1 (Homo sapiens, UniProt P49759); assay: inhibition of human CLK1 activity – biochemical, cherry-picked samples, selectivity assay for Dyrk1A inhibitor project, dose response (AID 588811)
Dual specificity protein kinase CLK1, sequence (P49759 whole entry): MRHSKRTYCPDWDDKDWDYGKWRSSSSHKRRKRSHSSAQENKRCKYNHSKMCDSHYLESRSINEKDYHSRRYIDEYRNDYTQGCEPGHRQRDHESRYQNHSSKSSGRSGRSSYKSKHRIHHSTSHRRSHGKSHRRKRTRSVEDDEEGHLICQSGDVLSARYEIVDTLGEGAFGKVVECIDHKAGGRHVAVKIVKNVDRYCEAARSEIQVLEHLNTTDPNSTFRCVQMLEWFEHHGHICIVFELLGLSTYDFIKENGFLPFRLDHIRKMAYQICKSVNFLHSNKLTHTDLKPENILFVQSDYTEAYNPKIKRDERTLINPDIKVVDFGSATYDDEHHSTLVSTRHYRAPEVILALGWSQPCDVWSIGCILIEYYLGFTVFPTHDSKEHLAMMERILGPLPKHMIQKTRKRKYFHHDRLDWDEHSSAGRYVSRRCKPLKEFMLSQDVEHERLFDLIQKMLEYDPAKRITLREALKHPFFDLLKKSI

[10] = molecular target: FAD-linked sulfhydryl oxidase ALR (Homo sapiens, UniProt P55789); assay: ALR-catalysed DTT oxidation blockers – biochemical, H2O2 detection, luminescence, cherry-pick, dose response (AID 493248)
FAD-linked sulfhydryl oxidase ALR, sequence (P55789 whole entry): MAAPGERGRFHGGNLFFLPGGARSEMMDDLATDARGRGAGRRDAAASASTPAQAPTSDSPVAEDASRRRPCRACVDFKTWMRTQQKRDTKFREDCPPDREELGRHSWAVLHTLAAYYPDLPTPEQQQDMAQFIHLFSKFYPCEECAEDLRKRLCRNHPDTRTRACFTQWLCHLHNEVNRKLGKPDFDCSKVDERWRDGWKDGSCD

[11] = molecular target: Dual specificity tyrosine-phosphorylation-regulated kinase 1A (Rattus norvegicus, UniProt Q63470); type: biochemical, Homo sapiens

Structure (SMILES): CN(C)CCCN(C(=O)CCSc1ccccc1)c1nc2cc3c(cc2s1)OCO3
EC50 [1]: > 54.7 µM (inactive)
EC50 [2]: > 54.7 µM (inactive)
IC50 [3]: 33.9 µM (inactive)
EC50 [4]: > 54.7 µM (inactive)

Structure (SMILES): CN(N=O)c1ccc(CC2CCc3ccccc32)cc1 (centres undefined)
AC50 [5]: 79.8 µM (active)
IC50 [6]: 58.5 µM (inactive)

Structure (SMILES): C[C@@H](CN1CCC2(CC1)C(=O)NCN2c1ccc(F)c(F)c1)NC(=O)c1ccc(Cl)cc1
IC50 [7]: 0.031 µM (active)
IC50 [8]: 0.125 µM (active)

Structure (SMILES): O=C(NCCN1CCC(n2nnc3ccccc32)CC1)c1ccc2ccccc2c1
IC50 [7]: 2.7 µM (active)
IC50 [8]: 1.75 µM (active)

AC50 [9]: 2.04 µM (active)
Structure (SMILES): c1cc(-c2ccc3c(c2)OCO3)nc(Nc2ccc3c(c2)OCO3)n1

AC50 [10]: 1.11 µM (active)
AC50 [9]: 7.74 µM (active)
AC50 [11]: 5.26 µM (active)
Structure (SMILES): O=C(Nc1nc2c(s1)CCCC2)c1ccc(N2C(=O)CCC2=O)cc1
